Values joined by “and” are separate entries in the source; they are usually repeats but may differ in a detail not shown here. Equal entries are not always repeated. Numbers after ± are expanded uncertainties.
Conditions: Liquid; for mass density: Bellows volumetry

CCC(C)C [2-methylbutane]
Conditions	mass density
360 K, 70000 kPa	638.43 ± 0.7 kg/m3
360 K, 80000 kPa	645.89 ± 0.71 kg/m3
360 K, 90000 kPa	652.93 ± 0.72 kg/m3
360 K, 100000 kPa	659.45 ± 0.73 kg/m3
360 K, 120000 kPa	671.11 ± 0.74 kg/m3
360 K, 140000 kPa	681.34 ± 0.75 kg/m3
360 K, 160000 kPa	691.16 ± 0.76 kg/m3
360 K, 180000 kPa	699.47 ± 0.77 kg/m3
360 K, 200000 kPa	708.18 ± 0.78 kg/m3
368.12 K, 98070 kPa	653.72 ± 0.72 kg/m3
368.12 K, 147100 kPa	681.34 ± 0.75 kg/m3
368.12 K, 196130 kPa	703.04 ± 0.77 kg/m3
380 K, 846 kPa	518.39 ± 0.57 kg/m3
380 K, 857 kPa	518.44 ± 0.57 kg/m3
380 K, 962 kPa	518.87 ± 0.57 kg/m3
380 K, 1000 kPa	518.39 ± 0.57 kg/m3
380 K, 1001 kPa	519.03 ± 0.57 kg/m3
380 K, 2000 kPa	522.38 ± 0.57 kg/m3
380 K, 3000 kPa	526.02 ± 0.58 kg/m3
380 K, 5000 kPa	532.71 ± 0.59 kg/m3
380 K, 10000 kPa	546.59 ± 0.6 kg/m3
380 K, 20000 kPa	567.43 ± 0.62 kg/m3
380 K, 30000 kPa	583.41 ± 0.64 kg/m3
380 K, 40000 kPa	596.53 ± 0.66 kg/m3
380 K, 50000 kPa	607.73 ± 0.67 kg/m3
380 K, 60000 kPa	617.61 ± 0.68 kg/m3
380 K, 70000 kPa	626.4 ± 0.69 kg/m3
380 K, 80000 kPa	634.41 ± 0.7 kg/m3
380 K, 90000 kPa	641.88 ± 0.71 kg/m3
380 K, 100000 kPa	648.74 ± 0.71 kg/m3
380 K, 120000 kPa	661.13 ± 0.73 kg/m3
380 K, 140000 kPa	672.14 ± 0.74 kg/m3
380 K, 160000 kPa	682.07 ± 0.75 kg/m3
380 K, 180000 kPa	691.12 ± 0.76 kg/m3
380 K, 200000 kPa	699.6 ± 0.77 kg/m3
400 K, 1250 kPa	487.6 ± 0.54 kg/m3
400 K, 1309 kPa	487.97 ± 0.54 kg/m3
400 K, 1506 kPa	489.2 ± 0.54 kg/m3
400 K, 1611 kPa	489.83 ± 0.54 kg/m3
400 K, 2000 kPa	491.59 ± 0.54 kg/m3 and 492.12 ± 0.54 kg/m3
400 K, 3000 kPa	497.03 ± 0.55 kg/m3
400 K, 5000 kPa	506.33 ± 0.56 kg/m3
400 K, 10000 kPa	524.35 ± 0.58 kg/m3
400 K, 20000 kPa	549.47 ± 0.6 kg/m3
400 K, 30000 kPa	567.78 ± 0.62 kg/m3
400 K, 40000 kPa	582.37 ± 0.64 kg/m3
400 K, 50000 kPa	594.58 ± 0.65 kg/m3
400 K, 60000 kPa	605.35 ± 0.67 kg/m3
400 K, 70000 kPa	614.87 ± 0.68 kg/m3
400 K, 80000 kPa	623.43 ± 0.69 kg/m3
400 K, 90000 kPa	631.33 ± 0.69 kg/m3
400 K, 100000 kPa	638.47 ± 0.7 kg/m3
400 K, 120000 kPa	651.4 ± 0.72 kg/m3
400 K, 140000 kPa	662.94 ± 0.73 kg/m3
400 K, 160000 kPa	673.54 ± 0.74 kg/m3
400 K, 180000 kPa	682.87 ± 0.75 kg/m3
400 K, 200000 kPa	691.58 ± 0.76 kg/m3
410 K, 1519 kPa	470.27 ± 0.52 kg/m3
410 K, 1623 kPa	471.11 ± 0.52 kg/m3
410 K, 2000 kPa	474.02 ± 0.52 kg/m3
420 K, 1789 kPa	450.66 ± 0.5 kg/m3
420 K, 1800 kPa	450.78 ± 0.5 kg/m3
420 K, 1904 kPa	451.92 ± 0.5 kg/m3
420 K, 2000 kPa	452.61 ± 0.5 kg/m3 and 452.93 ± 0.5 kg/m3
420 K, 3000 kPa	461.88 ± 0.51 kg/m3
420 K, 5000 kPa	476.16 ± 0.52 kg/m3
420 K, 10000 kPa	500.48 ± 0.55 kg/m3
420 K, 20000 kPa	530.77 ± 0.58 kg/m3
420 K, 30000 kPa	551.51 ± 0.61 kg/m3
420 K, 40000 kPa	567.85 ± 0.62 kg/m3
420 K, 50000 kPa	581.15 ± 0.64 kg/m3
420 K, 60000 kPa	592.84 ± 0.65 kg/m3
420 K, 70000 kPa	602.84 ± 0.66 kg/m3
420 K, 80000 kPa	612.1 ± 0.67 kg/m3
420 K, 90000 kPa	620.5 ± 0.68 kg/m3
420 K, 100000 kPa	628.24 ± 0.69 kg/m3
420 K, 120000 kPa	641.97 ± 0.71 kg/m3
420 K, 140000 kPa	653.97 ± 0.72 kg/m3
420 K, 160000 kPa	664.82 ± 0.73 kg/m3
420 K, 180000 kPa	674.63 ± 0.74 kg/m3
420 K, 200000 kPa	683.74 ± 0.75 kg/m3
440 K, 3000 kPa	412.99 ± 0.45 kg/m3
440 K, 5000 kPa	439.7 ± 0.48 kg/m3
440 K, 10000 kPa	474.4 ± 0.52 kg/m3
440 K, 20000 kPa	511.64 ± 0.56 kg/m3
440 K, 30000 kPa	535.46 ± 0.59 kg/m3
440 K, 40000 kPa	553.42 ± 0.61 kg/m3
440 K, 50000 kPa	568.08 ± 0.62 kg/m3
440 K, 60000 kPa	580.59 ± 0.64 kg/m3
440 K, 70000 kPa	591.44 ± 0.65 kg/m3
440 K, 80000 kPa	601.22 ± 0.66 kg/m3
440 K, 90000 kPa	610.1 ± 0.67 kg/m3
440 K, 100000 kPa	618.08 ± 0.68 kg/m3
440 K, 120000 kPa	632.51 ± 1.4 kg/m3
440 K, 140000 kPa	645.06 ± 1.4 kg/m3
440 K, 160000 kPa	656.44 ± 1.4 kg/m3
440 K, 180000 kPa	666.6 ± 1.5 kg/m3
440 K, 200000 kPa	676.01 ± 1.5 kg/m3

Conditions	mass density [kg/m3]	vapor or sublimation pressure [kPa]
360 K	544.8 ± 0.6	538 ± 3
380 K	518.31 ± 0.57	835 ± 3
400 K	487.34 ± 0.54	1238 ± 3
410 K	469.93 ± 0.52	1487 ± 3
420 K	450.21 ± 0.5	1772 ± 3
